This is an account of results in patent US8163909B2, “Substituted hydroxyethyl amine compounds as beta-secretase modulators and methods of use” (Amgen Inc., priority 2007, dated 2012).

Like-named read-outs stand apart in the source and are kept apart here.

Data set [1] has as its system Aβ40 in conditioned medium of cells stably expressing Amyloid Precursor Protein (APP). In words: In vitro BACE cell-based assay (Aβ40 in conditioned medium, sandwich ELISA).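 Note: compounds added as a dilution series, secreted peptide quantified by europium time-resolved fluorescence readout, potency fitted from percent of control versus compound concentration.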 The note with it: Homo sapiens, IC50's in uM, read-out: HEK cell assay. (In general: In an ELISA, binding on a coated surface is turned into a signal by an enzyme label.)
The target of data set [2] is Beta Secretase enzyme (BACE) (Homo sapiens, UniProt P56817). In words: In vitro enzymatic BACE FRET (fluorescence resonance energy transfer) assay.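 Note: fluorescence read after 1 h with 50 nM quenched peptide substrate spanning the BACE cleavage site, in pH 4.2 acetate buffer containing 10% DMSO and nonionic detergent.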 Particulars: BACE enzyme assay, IC50's in uM; read-out: BACE1 FRET assay. Format: biochemical.
Chain of Beta Secretase enzyme (BACE) (P56817 46-501): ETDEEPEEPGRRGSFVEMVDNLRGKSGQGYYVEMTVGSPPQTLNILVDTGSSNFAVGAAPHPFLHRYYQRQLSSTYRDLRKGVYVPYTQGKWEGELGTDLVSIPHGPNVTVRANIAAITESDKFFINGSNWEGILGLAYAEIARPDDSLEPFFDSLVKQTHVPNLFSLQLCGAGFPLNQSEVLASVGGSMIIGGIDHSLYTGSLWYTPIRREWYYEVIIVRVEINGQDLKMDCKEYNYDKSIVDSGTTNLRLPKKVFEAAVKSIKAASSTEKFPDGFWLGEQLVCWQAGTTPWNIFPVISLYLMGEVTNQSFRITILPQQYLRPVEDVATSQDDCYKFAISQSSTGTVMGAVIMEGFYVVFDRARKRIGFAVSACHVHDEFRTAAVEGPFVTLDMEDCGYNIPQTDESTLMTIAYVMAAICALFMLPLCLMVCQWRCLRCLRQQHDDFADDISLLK
A further data set has as its target CYP3A4 (CYP3A) (Homo sapiens, UniProt P08684). Kind of data set: in vitro. Particulars: microsomes, pH 7.4.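 Note: inhibition of CYP3A-mediated 1-hydroxymidazolam formation after 10 min incubation with NADPH, quantified by HPLC MS relative to metabolite produced without test compound.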
Data set [3] can be described thus: Microsomal stability assay, rat liver microsomes.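 Note: rat liver microsomes (0.25 mg/mL) with about 1 µM compound plus 1 mM NADPH, pH 7.4, 37 °C for 30 min, parent left measured by LC-MS/MS against 0 min.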 The note with it: rat liver microsomal data. (In general: Liver microsomes are a subcellular fraction often used to study metabolism.)
Data set [4] is described as follows: Microsomal stability assay, human liver microsomes.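 Note: pooled human liver microsomes at 0.25 mg/mL with 1 µM compound and NADPH at 37 °C, pH 7.4, for 30 min, unchanged parent quantified by LC-MS/MS against the 0 min sample.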 Particulars: human liver microsomal data.
The target in a further data set is CYP2D6 (Homo sapiens, UniProt P10635). In words: CYP2D6 inhibition assay (bufuralol, pooled human liver microsomes).
Chain of CYP2D6 (P10635 whole entry): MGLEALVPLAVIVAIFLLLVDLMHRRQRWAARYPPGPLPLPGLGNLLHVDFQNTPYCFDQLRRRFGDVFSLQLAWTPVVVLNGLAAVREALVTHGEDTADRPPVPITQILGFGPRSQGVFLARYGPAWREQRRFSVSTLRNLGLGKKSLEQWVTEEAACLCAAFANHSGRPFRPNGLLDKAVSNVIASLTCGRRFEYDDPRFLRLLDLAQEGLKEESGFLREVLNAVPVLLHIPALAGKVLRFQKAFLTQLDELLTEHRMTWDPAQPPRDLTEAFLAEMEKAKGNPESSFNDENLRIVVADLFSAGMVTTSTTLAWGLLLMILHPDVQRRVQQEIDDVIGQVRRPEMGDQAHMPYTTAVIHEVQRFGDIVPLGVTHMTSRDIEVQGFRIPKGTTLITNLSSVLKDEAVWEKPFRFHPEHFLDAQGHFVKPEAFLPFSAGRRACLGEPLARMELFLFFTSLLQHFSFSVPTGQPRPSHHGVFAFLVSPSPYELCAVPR
Where [5] appears, read: 2D6 IC50 (uM), CYP enzyme inhibition.

Chain of CYP3A4 (CYP3A) (P08684 2-503): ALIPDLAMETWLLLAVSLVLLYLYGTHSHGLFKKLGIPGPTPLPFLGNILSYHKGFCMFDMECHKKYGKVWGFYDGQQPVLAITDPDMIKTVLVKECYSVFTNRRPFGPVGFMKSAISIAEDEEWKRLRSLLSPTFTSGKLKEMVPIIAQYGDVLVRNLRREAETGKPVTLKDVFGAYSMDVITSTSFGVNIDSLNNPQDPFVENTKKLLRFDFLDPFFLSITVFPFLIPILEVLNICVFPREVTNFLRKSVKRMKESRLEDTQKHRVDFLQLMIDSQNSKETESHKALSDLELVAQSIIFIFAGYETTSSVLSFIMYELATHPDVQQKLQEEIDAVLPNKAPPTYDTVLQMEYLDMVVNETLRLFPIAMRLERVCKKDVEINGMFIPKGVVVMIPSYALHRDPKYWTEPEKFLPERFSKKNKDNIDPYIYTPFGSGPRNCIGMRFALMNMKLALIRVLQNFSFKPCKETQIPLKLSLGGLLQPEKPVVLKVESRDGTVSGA

In the case of `CO[C@H](C)C(=O)N[C@@H](Cc1cc(F)cc(-c2nccs2)c1)[C@H](O)CN[C@H]1CC2(CCC2)Oc2ncc(CC(C)C)cc21` [Example 761], the IC50 in data set [1] (HEK293, HEK cell-based assay) turned out to be 0.375 µM; in data set [2], 1.62 µM; at CYP3A4 (CYP3A), 0.1 µM; against CYP2D6 (setting [5]), 0.7 µM. Further, the “RLM” value in data set [3] stood at 74 µL/min/mg. For the same compound, the “HLM” value in data set [4] turned out to be 85 µL/min/mg.

In the case of `CCOCC(=O)N[C@@H](Cc1ccc2c(c1)OCO2)[C@H](O)CN[C@H]1CC2(CCC2)Oc2ncc(CC(C)(C)C)cc21` [Example 772, N-((1S,2R)-1-(1,3-benzodioxol-5-ylmethyl)-3-(((4′S)-6′-(2,2-dimethylpropyl)-3′,4′-dihydrospiro[cyclobutane-1,2′-pyrano[2,3-b]pyridin]-4′-yl)amino)-2-hydroxypropyl)-2-ethoxyacetamide], the IC50 is 0.042 µM in data set [1] (HEK293, HEK cell-based assay); 0.021 µM in data set [2]; 0.2 µM against CYP3A4 (CYP3A); 1.1 µM against CYP2D6 (setting [5]). Besides, in data set [3], the “RLM” value is 112 µL/min/mg. The “HLM” value in data set [4] worked out at 28 µL/min/mg.

On to `COCC(=O)N[C@@H](Cc1cc(F)cc(-c2nccs2)c1)[C@H](O)CN[C@H]1CC2(CCC2)Oc2ncc([C@@H]3CC3(C)C)cc21` [Example 773, N-((1S,2R)-3-(((4′S)-6′-((1R)-2,2-dimethylcyclopropyl)-3′,4′-dihydrospiro[cyclobutane-1,2′-pyrano[2,3-b]pyridin]-4′-yl)amino)-1-(3-fluoro-5-(1,3-thiazol-2-yl)benzyl)-2-hydroxypropyl)-2-methoxyacetamide], for which the IC50 in data set [1] (HEK293, HEK cell-based assay) amounted to 0.006 µM; in data set [2], 0.003 µM; against CYP3A4 (CYP3A), 0.3 µM; at CYP2D6 (setting [5]), 0.3 µM. Moreover, the “RLM” value in data set [3] turned out to be 67 µL/min/mg. In addition, the “HLM” value in data set [4] amounted to 62 µL/min/mg.

In the case of `CO[C@H](C)C(=O)N[C@@H](Cc1cccc(-c2nccs2)c1)[C@H](O)CN[C@H]1CC2(CCC2)Oc2ncc(CC(C)C)cc21` [Example 776, (2R)-N-((1S,2R)-2-hydroxy-3-(((4′S)-6′-(2-methylpropyl)-3′,4′-dihydrospiro[cyclobutane-1,2′-pyrano[2,3-b]pyridin]-4′-yl)amino)-1-(3-(1,3-thiazol-2-yl)benzyl)propyl)-2-methoxypropanamide], the IC50 is 0.027 µM in data set [1] (HEK293, HEK cell-based assay); 0.014 µM in data set [2]; 0.2 µM at CYP3A4 (CYP3A); 0.7 µM against CYP2D6 (setting [5]). Moreover, the “RLM” value in data set [3] worked out at 61 µL/min/mg. Also, the “HLM” value in data set [4] came out at 58 µL/min/mg.

Take `C#Cc1cccc(C[C@H](NC(=O)[C@@H](C)OC)[C@H](O)CN[C@H]2CC3(CCC3)Oc3ncc(CC(C)C)cc32)c1` [Example 777, (2R)-N-((1S,2R)-1-(3-ethynylbenzyl)-2-hydroxy-3-(((4′S)-6′-(2-methylpropyl)-3′,4′-dihydrospiro[cyclobutane-1,2′-pyrano[2,3-b]pyridin]-4′-yl)amino)propyl)-2-methoxypropanamide]: the IC50 in data set [1] (HEK293, HEK cell-based assay) stood at 0.013 µM; in data set [2] it was 0.006 µM; at CYP3A4 (CYP3A), 0.1 µM; against CYP2D6 (setting [5]), 2.1 µM. In addition, in data set [3], the “RLM” value worked out at 38 µL/min/mg. The “HLM” value in data set [4] stood at 29 µL/min/mg.

Turning to `C#Cc1cc(F)cc(C[C@H](NC(=O)COC)[C@H](O)CN[C@H]2CC3(CCC3)Oc3ncc(CC(C)C)cc32)c1` [Example 856, N-((1S,2R)-1-(3-ethynyl-5-fluorobenzyl)-2-hydroxy-3-(((4′S)-6′-(2-methylpropyl)-3′,4′-dihydrospiro[cyclobutane-1,2′-pyrano[2,3-b]pyridin]-4′-yl)amino)propyl)-2-methoxyacetamide], the IC50 in data set [1] (HEK293, cell-based assay, HEK cells) came to 0.009 µM; in data set [2] it was 0.002 µM; at CYP3A4 (CYP3A) it was 0.15 µM; on CYP2D6 (2D6 IC50, CYP enzyme inhibition), 1 µM. The compound further registered an RLM in data set [3] of 78 µL/min/mg. This compound registered an HLM in data set [4] of 63 µL/min/mg.
